# From US20080153850A1, “Adamantyl Derivates as P2x7 Receptor Antagonists” (AstraZeneca AB, priority 2004, published 2008)
# Counter-ions that a name gives are not always drawn.
row,SMILES,melting point
1,"CC(=O)Nc1ccc(-c2ccc(Cl)c(C(=O)NCC34CC5CC(CC(C5)C3)C4)c2)c(C)n1 [Example 73, 5-[6-(Acetylamino)-2-methyl-3-pyridinyl]-2-chloro-N-(tricyclo[3.3.1.1^3,7]dec-1-ylmethyl)-benzamide]",172 to 177 °C
2,"O=C(NCC12CC3CC(CC(C3)C1)C2)c1cc(-c2ncccc2OCc2nnn[nH]2)ccc1Cl [Example 29, 2-Chloro-5-[3-(1H-tetrazol-5-ylmethoxy)-2-pyridinyl]-N-(tricyclo[3.3.1.1^3,7]dec-1-ylmethyl)-benzamide]",122 to 126 °C
3,"O=C(O)Cc1ncccc1-c1ccc(Cl)c(C(=O)NCC23CC4CC(CC(C4)C2)C3)c1 (as salt: sodium) [Example 58, 3-[4-Chloro-3-[[(tricyclo[3.3.1.1^3,7]dec-1-ylmethyl)amino]carbonyl]phenyl]-2-pyridineacetic acid, monosodium salt]",186 to 187 °C (dec.)
4,"O=C(NCC12CC3CC(CC(C3)C1)C2)c1cc(-c2ccsc2C(=O)O)ccc1Cl [Example 19, 3-[4-Chloro-3-[[(tricyclo[3.3.1.1^3,7]dec-1-ylmethyl)amino]carbonyl]phenyl]-2-thiophenecarboxylic acid]",140 to 143 °C
5,"Cc1ccc(-c2ccccc2C(=O)O)cc1C(=O)NCC12CC3CC(CC(C3)C1)C2 [Example 67, 4′-Methyl-3′-[[(tricyclo[3.3.1.1^3,7]dec-1-ylmethyl)amino]carbonyl]-[1,1′-biphenyl]-2-carboxylic acid]",85 to 92 °C
6,"O=C(O)c1ccnc(-c2ccc(Cl)c(C(=O)NCC34CC5CC(CC(C5)C3)C4)c2)c1 [Example 12, 2-[4-Chloro-3-[[(tricyclo[3.3.1.1^3,7]dec-1-ylmethyl)amino]carbonyl]phenyl]-4-pyridinecarboxylic acid]",284 to 287 °C
7,"O=C(NCC12CC3CC(CC(C3)C1)C2)c1cc(-c2cccnc2N2CC(C(=O)O)C2)ccc1Cl [Example 62, 1-[3-[4-Chloro-3-[[(tricyclo[3.3.1.1^3,7]dec-1-ylmethyl)amino]carbonyl]phenyl]-2-pyridinyl]-3-azetidinecarboxylic acid]",145 to 150 °C
8,"O=C(O)COc1ncccc1-c1ccc(Cl)c(C(=O)NCC23CC4CC(CC(C4)C2)C3)c1 [Example 28, [[3-[4-Chloro-3-[[(tricyclo[3.3.1.1^3,7]dec-1-ylmethyl)amino]carbonyl]phenyl]-2-pyridinyl]oxy]-acetic acid]",226 to 229 °C
9,"O=C(NCC12CC3CC(CC(C3)C1)C2)c1cc(-c2ccccc2C(=O)O)ncc1Cl [Example 52, 2-[5-Chloro-4-[[(tricyclo[3.3.1.1^3,7]dec-1-ylmethyl)amino]carbonyl]-2-pyridinyl]-benzoic acid]",134 to 138 °C
10,"C[C@H](Oc1ccc(-c2ccc(Cl)c(C(=O)NCC34CC5CC(CC(C5)C3)C4)c2)cc1)C(=O)O [Example 43, (2S)-2-[[4′-Chloro-3′-[[(tricyclo[3.3.1.1^3,7]dec-1-ylmethyl)amino]carbonyl][1,1′-biphenyl]-4-yl]oxy]-propanoic acid]",145 to 150 °C
11,"O=C(NCC12CC3CC(CC(C3)C1)C2)c1cc(-c2cccnc2N2CCC(O)(C(=O)O)CC2)ccc1Cl [Example 65, 1-[3-[4-Chloro-3-[[(tricyclo[3.3.1.1^3,7]dec-1-ylmethyl)amino]carbonyl]phenyl]-2-pyridinyl]-4-hydroxy-4-piperidinecarboxylic acid]",145 to 150 °C
12,"C[C@@H](Oc1ccccc1-c1ccc(Cl)c(C(=O)NCC23CC4CC(CC(C4)C2)C3)c1)C(=O)O [Example 39, (2R)-2-[[4′-Chloro-3′-[[(tricyclo[3.3.1.1^3,7]dec-1-ylmethyl)amino]carbonyl][1,1′-biphenyl]-2-yl]oxy]-propanoic acid]",133 to 137 °C
13,"O=C(O)c1cc(C(F)(F)F)cc(-c2ccc(Cl)c(C(=O)NCC34CC5CC(CC(C5)C3)C4)c2)n1 [Example 72, 6-[4-Chloro-3-[[(tricyclo[3.3.1.1^3,7]dec-1-ylmethyl)amino]carbonyl]phenyl]-4-(trifluoromethyl)-2-pyridinecarboxylic acid]",220 to 225 °C
14,"Cc1cccc(C(=O)O)c1-c1ccc(Cl)c(C(=O)NCC23CC4CC(CC(C4)C2)C3)c1 [Example 18, 4′-Chloro-6-methyl-3′-[[(tricyclo[3.3.1.1^3,7]dec-1-ylmethyl)amino]carbonyl]-[1,1′-biphenyl]-2-carboxylic acid]",151 to 154 °C
15,"Cc1ccc(C(=O)O)c(-c2ccc(Cl)c(C(=O)NCC34CC5CC(CC(C5)C3)C4)c2)n1 [Example 13, 2-[4-Chloro-3-[[(tricyclo[3.3.1.1^3,7]dec-1-ylmethyl)amino]carbonyl]phenyl]-6-methyl-3-pyridinecarboxylic acid]",209 to 211 °C
16,"O=C(NCC12CC3CC(CC(C3)C1)C2)c1cc(-c2ccc(Cl)c(C(=O)O)n2)ccc1Cl [Example 44, 3-Chloro-6-[4-chloro-3-[[(tricyclo[3.3.1.1^3,7]dec-1-ylmethyl)amino]carbonyl]phenyl]-2-pyridinecarboxylic acid]",154 to 159 °C

row,SMILES,melting point
1,"O=C(NCC12CC3CC(CC(C3)C1)C2)c1cc(-c2nccnc2-c2nnn[nH]2)ccc1Cl [Example 9, 2-Chloro-5-[3(1-H-tetrazol-5-yl)pyrazinyl]-N-(tricyclo[3.3.1.1^3,7]dec-1-ylmethyl)-benzamide]",254 °C (dec.)
2,"O=C(NCC12CC3CC(CC(C3)C1)C2)c1cc(-c2cc(F)c(F)cc2C(=O)O)ccc1Cl [Example 48, 4′-Chloro-4,5-difluoro-3′-[[(tricyclo[3.3.1.1^3,7]dec-1-ylmethyl)amino]carbonyl]-[1,1′-biphenyl]-2-carboxylic acid]",121 to 125 °C
3,"O=C(NCC12CC3CC(CC(C3)C1)C2)c1cc(-c2ncccc2C(=O)O)ccc1Cl [Example 10, 2-[4-Chloro-3-[[(tricyclo[3.3.1.1^3,7]dec-1-ylmethyl)amino]carbonyl]phenyl]-3-pyridinecarboxylic acid]",169 to 172 °C
4,"O=C(O)COc1ccccc1-c1ccc(Cl)c(C(=O)NCC23CC4CC(CC(C4)C2)C3)c1 [Example 15, [[4′-Chloro-3′-[[(tricyclo[3.3.1.1^3,7]dec-1-ylmethyl)amino]carbonyl][1,1′-biphenyl]-2-yl]oxy]-acetic acid]",208 to 210 °C
5,"O=C(NCC12CC3CC(CC(C3)C1)C2)c1cc(-c2cc(F)cnc2N2CCC(C(=O)O)CC2)ccc1Cl [Example 66, 1-[3-[4-Chloro-3-[[(tricyclo[3.3.1.1^3,7]dec-1-ylmethyl)amino]carbonyl]phenyl]-5-fluoro-2-pyridinyl]-4-piperidinecarboxylic acid]",130 to 135 °C
6,"Cc1ccc(-c2cccc(C(=O)O)n2)cc1C(=O)NCC12CC3CC(CC(C3)C1)C2 [Example 69, 6-[4-Methyl-3-[[(tricyclo[3.3.1.1^3,7]dec-1-ylmethyl)amino]carbonyl]phenyl]-2-pyridinecarboxylic acid]",227 °C
7,"O=C(NCC12CC3CC(CC(C3)C1)C2)c1cc(-c2ncc(Cl)cc2C(=O)O)ccc1Cl [Example 17, 5-Chloro-2-[4-chloro-3-[[(tricyclo[3.3.1.1^3,7]dec-1-ylmethyl)amino]carbonyl]phenyl]-3-pyridinecarboxylic acid]",165 to 168 °C
8,"O=C(NCC12CC3CC(CC(C3)C1)C2)c1cc(-c2cccnc2N2CCC(C(=O)O)CC2)ccc1Cl [Example 59, 1-[3-[4-Chloro-3-[[(tricyclo[3.3.1.1^3,7]dec-1-ylmethyl)amino]carbonyl]phenyl]-2-pyridinyl]-4-piperidinecarboxylic acid]",110 to 115 °C
9,"O=C(NCC12CC3CC(CC(C3)C1)C2)c1cc(-c2ccc(F)cc2C(=O)O)ccc1Cl [Example 51, 4′-Chloro-4-fluoro-3′-[[(tricyclo[3.3.1.1^3,7]dec-1-ylmethyl)amino]carbonyl]-[1,1′-biphenyl]-2-carboxylic acid]",126 to 128 °C
10,"O=C(O)COc1ccc(-c2ccc(Cl)c(C(=O)NCC34CC5CC(CC(C5)C3)C4)c2)cc1 [Example 40, [[4′-Chloro-3′-[[(tricyclo[3.3.1.1^3,7]dec-1-ylmethyl)amino]carbonyl][1,1′-biphenyl]-4-yl]oxy]-acetic acid]",136 to 140 °C
11,"O=C(NCCC12CC3CC(CC(C3)C1)C2)c1cc(-c2ccccc2C(=O)O)ccc1Cl [Example 49, 4′-Chloro-3′-[[(2-tricyclo[3.3.1.1^3,7]dec-1-ylethyl)amino]carbonyl]-[1,1′-biphenyl]-2-carboxylic acid]",114 to 117 °C
12,"O=C(NCC12CC3CC(CC(C3)C1)C2)c1cc(-c2nccnc2C(=O)O)ccc1Cl (as salt: sodium) [Example 6, 3-[4-Chloro-3-[[(tricyclo[3.3.1.1^3,7]dec-1-ylmethyl)amino]carbonyl]phenyl]-2-pyrazinecarboxylic acid, monosodium salt]",194 to 195 °C (dec.)
13,"CS(=O)(=O)NC(=O)c1cccc(-c2ccc(Cl)c(C(=O)NCC34CC5CC(CC(C5)C3)C4)c2)n1 [Example 25, 6-[4-Chloro-3-[[(tricyclo[3.3.1.1^3,7]dec-1-ylmethyl)amino]carbonyl]phenyl]-N-(methylsulfonyl)-2-pyridinecarboxamide]",160 to 162 °C
14,"Cc1ccc(-c2cccnc2C(=O)O)cc1C(=O)NCC12CC3CC(CC(C3)C1)C2 [Example 55, 3-[4-Methyl-3-[[(tricyclo[3.3.1.1^3,7]dec-1-ylmethyl)amino]carbonyl]phenyl]-2-pyridinecarboxylic acid]",181 to 183 °C
15,"O=C(O)CNc1ncccc1-c1ccc(Cl)c(C(=O)NCC23CC4CC(CC(C4)C2)C3)c1 [Example 26, N-[3-[4-Chloro-3-[[(tricyclo[3.3.1.1^3,7]dec-1-ylmethyl)amino]carbonyl]phenyl]-2-pyridinyl]-glycine]",160 to 164 °C
16,"O=C(O)c1cccc(-c2ccc(Cl)c(C(=O)NCC34CC5CC(CC(C5)C3)C4)c2)c1 [Example 2, 4′-Chloro-3′-[[(tricyclo[3.3.1.1^3,7]dec-1-ylmethyl)amino]carbonyl]-[1,1′-biphenyl]-3-carboxylic acid]",255 to 257 °C
